Source: US20130060013A1, “Compounds useful for treating neurodegenerative disorders” (SATORI PHARMACEUTICALS, INC., priority 2011, published 2013)

Tests used:
Format in all cases: cell-based
Conditions in all cases: Homo sapiens, compound 5 hours at 37° C., 1% DMSO, percent vehicle fit to 4 parameter curve
Aβ-40 = Aβ-40 level in conditioned media of 2B7 cells (MSD 3-PLEX ELISA)
Method: Assays were conducted to determine the ability of a Compound of Formula I to modulate […], and Aβ-38.
Human (6E10) Ab 3-PLEX elisa kits were purchased from Meso Scale Discovery Labs, 9328 Gaither Road, Gaithersburg, Md. 20877 (Catalog Number K15148E-3). Plates with capture antibodies were blocked for 1-2 hours at room temperature with 150 μL of the manufactures blocking reagent.
Cultured 2B7 cells in 96 well plate with 250 uL of media per well until confluent;
Prepared serial dilutions of compounds in DMSO at 100× the final desired concentration;
Washed wells with 2B7 cells 1× with 250 uL of media;
Diluted DMSO stocks 1:100 into media:
Added 250 μL of media containing compounds (1% DMSO) to wells with 2B7 cells for 5 hours at 37° C.
Diluted conditioned media: 1 part media with 1% DMSO and 1 part blocking buffer;
150 μL of the 250 μL of conditioned media were used.
Standard Curve Sample Prep:
Prepared per manufacturer's protocol (see above)
Seven point standard curve samples were prepared that contained Aβ-42, Aβ-40, and Aβ-38. The highest concentration of Aβ-42 and Aβ-38 was 3,000 pg/mL and the highest concentration of Aβ-40 was 10,000 pg/mL. Subsequent serial dilutions were 1:3 and the final composition of each sample was 1 part blocking buffer and 1 part cell medium containing 1% DMSO.
Overnight Sample Incubation:
Blocked plates are washed 5× with MSD wash buffer with a plate washer
25 uL of detection antibody and blocker G reagent in MSD blocking solution is added
25 uL of samples (1 part conditioned media containing 1% DMSO and 1 part MSD blocking buffer) are then added.
plates are incubated overnight at 4 degrees C. or 2 hours at room temp
Wash wells 5× with MSD wash buffer
Added 150 μL 2×MSD read buffer
A-Beta peptide levels for each peptide are calculated from the standard curve using the MSD software provided with the MSD 2400 Imager. Percent vehicle values for each compound dosage were then calculated and fit to a 4 parameter curve generating IC50 values.

Aβ-38 = Aβ-38 level in conditioned media of 2B7 cells (MSD 3-PLEX ELISA)
In short: (§1)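 2B7 cells at confluence were exposed to compound dilutions in medium (1% DMSO final) for 5 h at 37 °C. Conditioned medium, diluted 1:1 in blocking buffer, was assayed by MSD 3-plex electrochemiluminescence ELISA, and levels were read from a seven-point standard curve. IC50 came from a 4-parameter fit of percent-of-vehicle values.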

Aβ-42 = Aβ-42 level in conditioned media of 2B7 cells (MSD 3-PLEX ELISA)
In short: as §1

Row | SMILES | IC50 (Aβ-40) [nM] | IC50 (Aβ-38) [nM] | IC50 (Aβ-42) [nM]
1 | CCO[C@@H]([C@H]1C[C@@H](C)[C@H]2[C@H](O1)[C@H](O)[C@@]1(C)[C@@H]3CC[C@H]4C(C)(C)[C@@H](OC(=O)CN5CCOCC5)CCC45C[C@@]35CC[C@]21C)C(C)(C)O (stereo partly drawn) | 1000 to 10000 | < 1000 | < 1000
2 | CCO[C@@H]([C@H]1C[C@@H](C)[C@H]2[C@H](O1)[C@H](OCC)[C@@]1(C)[C@@H]3CC[C@H]4C(C)(C)[C@@H](O)CCC45C[C@@]35CC[C@]21C)C(C)(C)O (stereo partly drawn) | 1000 to 10000 | 1000 to 10000 | 1000 to 10000
3 | CO[C@@H](C1C[C@@H](C)[C@H]2C(O1)[C@H](O)[C@@]1(C)C3CC[C@H]4C(C)(C)[C@@H](O[C@H]5CNCCO5)CC[C@@]45CC35CC[C@]21C)C(C)(C)O (stereo partly drawn) | 1000 to 10000 | < 1000 | < 1000
4 | CCO[C@@H]([C@H]1C[C@@H](C)[C@H]2[C@H](O1)[C@H](O)[C@@]1(C)[C@@H]3CC[C@H]4C(C)(C)[C@@H](OC5CN(CC(=O)N6CCOCC6)CCO5)CCC45C[C@@]35CC[C@]21C)C(C)(C)O (stereo partly drawn) | > 10000 | < 1000 | < 1000
5 | CO[C@@H]([C@H]1C[C@@H](C)[C@H]2[C@H](O1)[C@H](O)[C@@]1(C)[C@@H]3CC[C@H]4C(C)(C)[C@@H](O[C@H]5CN(CCN6CCOCC6)CCO5)CCC45C[C@@]35CC[C@]21C)C(C)(C)O (stereo partly drawn) | 1000 to 10000 | < 1000 | < 1000
6 | CO[C@@H]([C@H]1C[C@@H](C)[C@H]2[C@H](O1)[C@H](O)[C@@]1(C)[C@@H]3CC[C@H]4C(C)(C)[C@@H](O[C@H]5CN(CCN(C)C)CCO5)CCC45C[C@@]35CC[C@]21C)C(C)(C)O (stereo partly drawn) | > 10000 | 1000 to 10000 | < 1000
7 | CCO[C@@H]([C@H]1C[C@@H](C)[C@H]2[C@H](O1)[C@H](O)[C@@]1(C)[C@@H]3CC[C@H]4C(C)(C)[C@@H](O[C@H]5CN([C@@H](C)CN6CCC6)CCO5)CCC45C[C@@]35CC[C@]21C)C(C)(C)O (stereo partly drawn) | 1000 to 10000 | < 1000 | < 1000
8 | CCO[C@@H]([C@H]1C[C@@H](C)[C@H]2[C@H](O1)[C@H](O)[C@@]1(C)[C@@H]3CC[C@H]4C(C)(C)[C@@H](O[C@H]5CN([C@@H](C)CO)CCO5)CCC45C[C@@]35CC[C@]21C)C(C)(C)O (stereo partly drawn) | 1000 to 10000 | < 1000 | < 1000
9 | CCO[C@@H]([C@H]1C[C@@H](C)[C@H]2[C@H](O1)[C@H](O)[C@@]1(C)[C@@H]3CC[C@H]4C(C)(C)[C@@H](O[C@H]5CN([C@H](C)CO)CCO5)CC[C@@]45C[C@@]35CC[C@]21C)C(C)(C)O | 1000 to 10000 | 1000 to 10000 | < 1000
10 | CCO[C@@H]([C@H]1C[C@@H](C)[C@H]2[C@H](O1)[C@H](O)[C@@]1(C)[C@@H]3CC[C@H]4C(C)(C)[C@@H](O[C@H]5CN(CC(C)(C)O)CCO5)CCC45C[C@@]35CC[C@]21C)C(C)(C)O (stereo partly drawn) | 1000 to 10000 | < 1000 | < 1000
11 | CCO[C@@H]([C@H]1C[C@@H](C)[C@H]2[C@H](O1)[C@H](O)[C@@]1(C)[C@@H]3CC[C@H]4C(C)(C)[C@@H](O[C@H]5CN(C(C)(C)CO)CCO5)CCC45C[C@@]35CC[C@]21C)C(C)(C)O (stereo partly drawn) | 1000 to 10000 | < 1000 | < 1000
12 | CCO[C@@H](C1C[C@@H](C)[C@H]2C(O1)[C@H](O)[C@@]1(C)C3CC[C@H]4C(C)(C)[C@@H](O[C@H]5CN(C(=O)CC6CNC6)CCO5)CCC45C[C@@]35CC[C@]21C)C(C)(C)O (stereo partly drawn) | 1000 to 10000 | < 1000 | < 1000
13 | CCO[C@@H](C1C[C@@H](C)[C@H]2C(O1)[C@H](O)[C@@]1(C)C3CC[C@H]4C(C)(C)[C@@H](O[C@H]5CN(C(=O)CC6CN(C)C6)CCO5)CCC45C[C@@]35CC[C@]21C)C(C)(C)O (stereo partly drawn) | 1000 to 10000 | < 1000 | < 1000
14 | CCO[C@@H]([C@H]1C[C@@H](C)[C@H]2[C@H](O1)[C@H](O)[C@]1(C)[C@@H]3CC[C@H]4C(C)(C)[C@@H](O[C@H]5CN(C(=O)C6CNC6)CCO5)CC[C@@]45C[C@@]35CC[C@@]21C)C(C)(C)O | 1000 to 10000 | < 1000 | < 1000
15 | CCO[C@@H]([C@H]1C[C@@H](C)[C@H]2[C@H](O1)[C@H](O)[C@@]1(C)[C@@H]3CC[C@H]4C(C)(C)[C@@H](O[C@H]5CN(CCF)CCO5)CCC45C[C@@]35CC[C@]21C)C(C)(C)O (stereo partly drawn) | 1000 to 10000 | < 1000 | < 1000
16 | CCO[C@@H]([C@H]1C[C@@H](C)[C@H]2[C@H](O1)[C@H](O)[C@@]1(C)[C@@H]3CC[C@H]4C(C)(C)[C@@H](O[C@H]5CN(C(C)(C)COC)CCO5)CCC45C[C@@]35CC[C@]21C)C(C)(C)O (stereo partly drawn) | > 10000 | < 1000 | < 1000
17 | CCO[C@@H]([C@H]1C[C@@H](C)[C@H]2[C@H](O1)[C@H](O)[C@@]1(C)[C@@H]3CC[C@H]4C(C)(C)[C@@H](O[C@H]5CN(CCN6CCOC6=O)CCO5)CCC45C[C@@]35CC[C@]21C)C(C)(C)O (stereo partly drawn) | 1000 to 10000 | < 1000 | < 1000
18 | CCO[C@@H]([C@H]1C[C@@H](C)[C@H]2[C@H](O1)[C@H](O)[C@@]1(C)[C@@H]3CC[C@H]4C(C)(C)[C@@H](O[C@H]5CN([C@H](C)CF)CCO5)CCC45C[C@@]35CC[C@]21C)C(C)(C)O (stereo partly drawn) | > 10000 | 1000 to 10000 | 1000 to 10000
19 | CCO[C@@H]([C@H]1C[C@@H](C)[C@H]2[C@H](O1)[C@H](O)[C@@]1(C)[C@@H]3CC[C@H]4C(C)(C)[C@@H](O[C@H]5CN([C@@H](C)CF)CCO5)CC[C@@]45C[C@@]35CC[C@]21C)C(C)(C)O | > 10000 | 1000 to 10000 | 1000 to 10000
20 | CCO[C@@H]([C@H]1C[C@@H](C)[C@H]2[C@H](O1)[C@H](O)[C@@]1(C)[C@@H]3CC[C@H]4C(C)(C)[C@@H](O[C@H]5CN([C@H](C)COC)CCO5)CCC45C[C@@]35CC[C@]21C)C(C)(C)O (stereo partly drawn) | > 10000 | 1000 to 10000 | < 1000
21 | CCO[C@@H]([C@H]1C[C@@H](C)[C@H]2[C@H](O1)[C@H](O)[C@@]1(C)[C@@H]3CC[C@H]4C(C)(C)[C@@H](O[C@H]5CN(Cc6ccn(C)n6)CCO5)CCC45C[C@@]35CC[C@]21C)C(C)(C)O (stereo partly drawn) | > 10000 | 1000 to 10000 | < 1000
22 | CCO[C@@H]([C@H]1C[C@@H](C)[C@H]2[C@H](O1)[C@H](O)[C@@]1(C)[C@@H]3CC[C@H]4C(C)(C)[C@@H](O[C@H]5CN([C@@H](C)COC)CCO5)CC[C@@]45C[C@@]35CC[C@]21C)C(C)(C)O | > 10000 | 1000 to 10000 | < 1000
23 | CCO[C@@H]([C@H]1C[C@@H](C)[C@H]2[C@H](O1)[C@H](O)[C@@]1(C)[C@@H]3CC[C@H]4C(C)(C)[C@@H](O[C@H]5CN(Cc6ncc[nH]6)CCO5)CCC45C[C@@]35CC[C@]21C)C(C)(C)O (stereo partly drawn) | 1000 to 10000 | < 1000 | < 1000
